Results taken from publication PMC6585474, “In vitro and in vivo Human Metabolism of (S)-[^18F]Fluspidine – A Radioligand for Imaging σ1 Receptors With Positron Emission Tomography (PET)” (Frontiers in Pharmacology, 2019).
Like-named read-outs stand apart in the source and are kept apart here.

Assays:
[1] = RLM, NADPH, after 30 min; ref Wiese et al., 2016; cited from earlier work
[2] = design: method as in Wiese et al., 2016; settings: mouse plasma, 30 min post injection; ref Wiese et al., 2016; cited from earlier work
[3] = design: method as in Wiese et al., 2016; settings: mouse brain, 60 min post injection; ref Wiese et al., 2016; cited from earlier work
[4] = Incubation of (S)-1 with HLM (NADPH, UDPGA) and detection of metabolites by LC-MS/MS; assay type: in vitro ADME, human; settings: 37°C, 120 min, LC-MS/MS (MRM)
Experimental: In the following, the final concentrations are provided in brackets. For incubations of (S)-[^18F]1 together with (S)-1 under conditions for oxidation and glucuronidation, a solution of (S)-1 of 0.1 mg/mL (2 μM) in acetonitrile was put into test tubes and the solvent was evaporated using the DB-3D TECHNE Sample Concentrator (Biostep) at room temperature under a stream of nitrogen. HLM (1 mg/mL) and alamethicin (50 μg/mL, from methanolic solution) were mixed ([Fisher et al., 2000]), kept on ice for 15 min and added to the test tubes. PBS, ∼5 MBq (S)-[^18F]1 in 20 μL PBS, and MgCl2 (2 mM) were added, mixed vigorously and the mixture was pre-incubated at 37°C for 3 min. After addition of analogously pre-incubated NADPH (2 mM) and UDPGA (5 mM), the incubations were continued by gentle shaking at 37°C for 120 min using the BioShake iQ (QUANTIFOIL Instruments). After termination by adding 1.0 mL of cold acetonitrile (-20°C) and vigorous mixing for 30 s, the mixtures were stored at 4°C for 5 min. […]
For selective detection of metabolites, MRM transitions, which covered products of, e.g., debenzylation, defluorination, single, and multiple oxygenations as well as single and multiple glucuronidation of (S)-1 or its intermediate metabolites, were monitored. After incubation of (S)-1 with HLM in presence of NADPH a series of metabolites (M1–M10) could be detected (Figure 4 and Table 1).

[5] = Time- and concentration-dependent microsomal transformation of (S)-[^18F]1 (HLM, NADPH, radio-HPLC); assay type: in vitro ADME, human; settings: 37°C; for unchanged radioligand: after 30 min incubation; for time at which 50% of unchanged (S)-[^18F]1 could be detected: HLM
Experimental: Respective amounts of a solution of (S)-1 of 0.1 mg/mL [<1 μM (referring to estimated molar activity; no addition of carrier), 2, and 20 μM] in acetonitrile were put into test tubes and the solvent was evaporated using the DB-3D TECHNE Sample Concentrator (Biostep, Jahnsdorf, Germany) at room temperature under a stream of nitrogen. PBS and HLM (1 mg/mL) and ∼5 MBq (S)-[^18F]1 (molar activity: 17 GBq/μmol, at the start of incubations) in 100 μl PBS were added, mixed vigorously, and pre-incubated at 37°C for 3 min. Analogously pre-incubated NADPH (2 mM) was added and mixtures were shaken gently at 37°C using the BioShake iQ (QUANTIFOIL Instruments, Jena, Germany). After 0, 2, 5, 10, 15, 20, 30, 40, 50, and 60 min, samples of 20 μL were taken and added to 80 μL cold acetonitrile (-20°C), followed by vigorous shaking (30 s), cooling on ice (4 min), and centrifugation at 14,000 rpm (10 min). Supernatants (90 μL) were diluted with water (30 μL) and immediately analyzed by radio-HPLC (system II).
System II: Analyses of samples from microsomal incubations to determine time and concentration dependency of microsomal transformation were performed on a JASCO X-LC system (JASCO Labor- und Datentechnik) equipped with a UV/Vis detector UV-2070 (monitoring at 210 nm) and a radioactivity flow detector GABI Star (raytest Isotopenmessgeräte, Straubenhardt, Germany) including NaI detector (2 × 2″ pinhole, 16 mm × 30 mm). […] The isocratic solvent system consisted of water/acetonitrile 40:60 (v/v), containing NH4OAc (20 mM). Unchanged (S)-[^18F]1 eluted at a retention time of 4.1 min, whilst formed radiometabolites eluted at 0.6–2.2 min. The percentages of unchanged (S)-[^18F]1 were calculated from HPLC data as follows: Fraction of (S) - [^18F]1(%) = Peak area(S)-[18F]1/(Peak area(S)-[18F]1 + Peak arearadiometabolites) × 100%
In order to obtain basic information about the metabolic stability in vitro, the time course of the degradation of (S)-[^18F]1 was investigated in presence of different concentrations of (S)-1 [no-carrier-added (n.c.a., <1 μM) and carrier-added: 2 and 20 μM]. For that purpose, incubations were performed in PBS with HLM and NADPH at 37°C. At defined time points (until 60 min) samples were taken and added to cold acetonitrile to terminate the incubations. After centrifugation, the fractions of remaining (S)-[^18F]1 were determined by radio-HPLC.

[6] = rhesus monkey, in vivo; cited from earlier work
[7] = in vivo, cited from earlier work
[8] = human, in vivo
Experimental: After injection of 244.6-290.4 MBq (mean: 265.5 MBq) of (S)-[^18F]1 into 8 healthy controls arterial blood samples (∼16 mL) were withdrawn at 10, 20, and 30 min. […] After 90 or 120 min, urine (∼8 mL) was collected and stored on ice. Plasma was obtained by centrifugation of blood samples at 7,000 rpm (UNIVERSAL 320 R, Hettich, Germany) for 7 min. Protein precipitation and extraction with acetonitrile was conducted as follows. Method A: 10 × 1.6 mL cold acetonitrile (-35°C) were added to 10 × 400 μL plasma, shaken for 3 min, cooled at 4°C for 5 min and centrifuged at 7,000 rpm (Eppendorf Centrifuge 5424) for 5 min. Supernatants were collected and the precipitates were extracted with 1.6 mL acetonitrile each. The combined supernatants were concentrated at 70°C under a flow of nitrogen (Sample Concentrator DB-3D TECHNE) to provide residual volumes of 40–70 μL, which were reconditioned by adding water to obtain samples of 100 μL, which were immediately analyzed by radio-HPLC (system I). Method B: similar to method A, using 2 × 8 mL cold acetonitrile (-35°C) and 2 × 2 mL plasma. After centrifugation, the precipitates were extracted with 2 × 4 mL acetonitrile.
System I: Analyses were performed on a JASCO LC-2000 system (JASCO Labor- und Datentechnik, Gross-Umstadt, Germany) including a UV-2070 UV–VIS detector (monitoring at 210 nm) online with a GABI Star radioactivity flow detector (raytest Isotopenmessgeräte, Straubenhardt, Germany) with a NaI detector (2 × 2″ pinhole, 16 mm × 30 mm). Chromatographic separations were achieved using a Multospher 120 RP 18 AQ-5μ-column, 250 mm × 4.6 mm, 5 μm, including pre-column, 10 mm × 4 mm (CS-Chromatographie Service, Langerwehe, Germany). The solvent system consisted of eluent A: water/acetonitrile, 95:5 (v/v), containing NH4OAc (20 mM) and eluent B: water/acetonitrile, 20:80 (v/v), containing NH4OAc (20 mM). […]
Urine samples, taken after 90 or 120 min post injection were measured by radio-HPLC without further preparation.

[9] = test system: β-glucuronidase (Helix pomatia type H-3); assay: β-Glucuronidase cleavage of microsomal-formed metabolite M12; assay type: in vitro ADME; settings: acetate buffer pH 4.5–5.0, 37°C, 2 h; M5 the only product observed
Experimental: In order to investigate the cleavage of formed glucuronides (see section “β-Glucuronidase Cleavage of Microsomal-Formed Metabolite M12”), microsomal incubation of (S)-1 was performed in quadruplicate with higher amounts of the substrate and the reagents as follows (final concentrations in brackets): (S)-1 (200 μM), HLM (2 mg/mL), NADPH (4 mM), MgCl2 (5 mM), alamethicin (0.1 mg/mL), UDPGA (10 mM). After addition of acetonitrile, resulting mixtures were combined and further processing was proceeded as described above. The obtained sample was separated chromatographically using the HPLC system I (Section “Radio-HPLC”) with UV monitoring at 210 nm. […]
To 10 μL of a solution of metabolite M12 (Section “Incubation of (S)-[^18F]1 and Non-radioactive References for Identification of in vitro Metabolites and Radiometabolites”), 32 μL acetate buffer (NaOAc/AcOH, 100 mM, pH 4.5–5.0), and 8 μL β-glucuronidase from Helix pomatia Type H-3 (aqueous solution, ≥90,000 units/mL, final: ≥14,400 units/mL) were added. […] After centrifugation at 14,000 rpm (Eppendorf Centrifuge 5424) for 15 min, 40 μL of the supernatant was diluted with 60 μL of water and analyzed by LC-MS/MS monitoring the MRM transitions m/z 518.2/342.2 (as for glucuronides of mono-oxygenated metabolites, e.g., M12) and 342.2/91.1 (as for mono-oxygenated metabolites, e.g., M5).

[10] = HLM 1 mg/mL, PBS, n.c.a. (<1 μM)

SMILES: FCCC1OC2(CCN(Cc3ccccc3)CC2)c2ccccc21 (racemic) [rac-1, racemic fluspidine]
- stability (intact compound) [1]: ~13%

SMILES: [17F]CCC1OC2(CCN(Cc3ccccc3)CC2)c2ccccc21 (racemic) [rac-[^18F]1, racemic [^18F]fluspidine]
- fraction of unchanged rac-[^18F]1 in plasma [2]: 89 ± 3%
- unchanged radioligand in brain [3]: 98%

SMILES: FCC[C@@H]1OC2(CCN(Cc3ccccc3)CC2)c2ccccc21 [(S)-1, 1′ -benzyl-3-(2-fluoroethyl)-3H-spiro[2-benzofuran-1,4′ -piperidine]]
- defluorination [4]: not observed
- unchanged radioligand [5, 10]: 14%

SMILES: [18F]CC[C@@H]1OC2(CCN(Cc3ccccc3)CC2)c2ccccc21 [(S)-[^18F]1, (S)-[^18F]fluspidine]
- fraction of the total activity in plasma [6]: 50%
- unchanged radioligand [5, 10]: 14%
- unchanged (S)-[^18F]1 ([5]; HLM 1 mg/mL, PBS, n.c.a. (<1 μM), after 60 min): 3%
- time at which 50% of unchanged (S)-[^18F]1 could be detected ([5]; 2 μM added (S)-1): 10 min
- time at which 50% of unchanged (S)-[^18F]1 could be detected ([5]; 20 μM added (S)-1): 17 min
- time at which 50% of unchanged (S)-[^18F]1 could be detected ([5]; n.c.a. (<1 μM)): 10 min
- radioligand remained unchanged in plasma ([7]; 16 min): 48%
- radioligand remained unchanged in plasma ([7]; 0.5 h): 37%
- Fraction of (S)-[^18F]1 of the total activity in urine [8]: 0.0–7.9%
- Fraction of (S)-[^18F]1 in urine ([8]; 90 min): 2.6%
- Fraction of (S)-[^18F]1 in urine ([8]; 120 min): 2.5%

SMILES: O=C(O)[C@H]1OC(OC(CF)[C@@H]2OC3(CCN(Cc4ccccc4)CC3)c3ccccc32)[C@H](O)[C@@H](O)[C@@H]1O (some centres unmarked) [M12]
- cleavage by β-glucuronidase [9]: cleaved completely
